This note sets out measurements from patent US20250163104A1, “MACROCYCLIC IMMUNOMODULATORS” (priority 2021, published 2025).

Each structure is given as a SMILES string. Where a SMILES comes first, the peptide text is derived from it. Bridges are numbered along the chain shown (N, C = ends). [ ]: non-standard residue; d: D form. The star is where a group is joined. ξ: configuration not given here. Phe(3,4-Cl2) = N[C@@H](Cc1ccc(Cl)c(Cl)c1)C(=O)O; Phe(3-CF3) = N[C@@H](Cc1cccc(C(F)(F)F)c1)C(=O)O; Ala(morpholin-4-yl) = N[C@@H](CN1CCOCC1)C(=O)O; Phe(4-COOH) = N[C@@H](Cc1ccc(C(=O)O)cc1)C(=O)O; Bip = N[C@@H](Cc1ccc(-c2ccccc2)cc1)C(=O)O; Phe(3-Me) = Cc1cccc(C[C@H](N)C(=O)O)c1; 2Nal = N[C@@H](Cc1ccc2ccccc2c1)C(=O)O; Val(3-OH) = CC(C)(O)[C@H](N)C(=O)O; ξW = NC(Cc1c[nH]c2ccccc12)C(=O)O; 4Pal = N[C@@H](Cc1ccncc1)C(=O)O; αMeE = C[C@](N)(CCC(=O)O)C(=O)O; Cha = N[C@@H](CC1CCCCC1)C(=O)O; Cit = NC(=O)NCCC[C@H](N)C(=O)O; Thr(3ξ) = CC(O)[C@H](N)C(=O)O; Carboxymethyl = O=C(O)C*; Orn = NCCC[C@H](N)C(=O)O; Pra = C#CC[C@H](N)C(=O)O; Dab = NCC[C@H](N)C(=O)O; Nva = CCC[C@H](N)C(=O)O; Dap = NC[C@H](N)C(=O)O; Propargyl = C#CC*

The assay addresses T1, human PD-1 / PD-L1-Ig binding on Jurkat cell line over-expressing human PD-1 (Jurkat-PD-1) (Homo sapiens, UniProt Q15116).
T1 construct: expressed in transfected cells; host or cells: Jurkat
Put plainly: Jurkat-PD-1 Cell Binding High-Content Screening Assay (CBA). The assay is classed as cell-based. Conditions: Jurkat-PD-1 cells, PE-labeled PD-L1-Ig 20 nM final; read-out: Jurkat HPD1_PDL1 IC50. In outline:
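Jurkat cells over-expressing human PD-1, in DMEM/10% FCS, pre-incubated with compound 2 h at 37° C. PE-labeled human PD-L1-Ig (20 nM final) added for 1 h; cells fixed in paraformaldehyde with Hoechst 33342 nuclear stain, washed, and bound fluorescence quantified by high-content imaging.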

T1 sequence (Q15116 25-288): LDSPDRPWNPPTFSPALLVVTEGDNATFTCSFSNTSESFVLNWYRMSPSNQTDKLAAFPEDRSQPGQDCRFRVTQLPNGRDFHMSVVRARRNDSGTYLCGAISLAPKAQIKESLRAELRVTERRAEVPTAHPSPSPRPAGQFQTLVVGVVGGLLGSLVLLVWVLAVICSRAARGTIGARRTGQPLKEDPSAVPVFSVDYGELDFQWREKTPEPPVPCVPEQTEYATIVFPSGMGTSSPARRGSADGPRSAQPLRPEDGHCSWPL

Regarding `CC(C)C[C@H]1NC(=O)[C@H](CCCN)NC(=O)[C@H](Cc2cnc[nH]2)NC(=O)[C@H](Cc2ccc(-c3ccccc3)cc2)NC(=O)[C@H](C(C)C)NC(=O)[C@H](Cc2c[nH]c3ccccc23)NC(=O)[C@H](CC(=O)O)NC(=O)[C@H](Cc2ccc(OCC(=O)O)cc2)NC(=O)[C@H](C(C)O)NC(=O)CSC[C@@H](C(=O)N[C@@H](CC(N)=O)C(N)=O)NC(=O)[C@H](CO)NC(=O)[C@H](C(C)C)NC(=O)[C@H](CC2CCCCC2)NC(=O)[C@H](CCN)NC1=O` (stereo partly drawn) [Compound 2561] ({CH2CO}-[Thr(3ξ)]Y(Carboxymethyl)DWV[Bip]H[Orn][dL][Dab][Cha]VSCN-NH2; thioether N-14), the IC50 amounted to 8.2 nM.

As to `CC(C)C[C@@H]1NC(=O)C(Cc2c[nH]c3ccccc23)NC(=O)[C@H](CC(=O)O)NC(=O)[C@H](Cc2ccc(O)cc2)NC(=O)[C@H](Cc2ccccc2)NC(=O)CSC[C@@H](C(=O)N[C@@H](C)C(N)=O)NC(=O)[C@H](CO)NC(=O)[C@H](C(C)C)NC(=O)[C@H](CC(C)C)NC(=O)[C@H](CC(N)=O)NC(=O)[C@@H](CC(C)C)NC(=O)[C@H](CN)NC(=O)[C@H](CCCNC(N)=O)NC(=O)[C@H](Cc2ccc(-c3ccccc3)cc2)NC1=O` (stereo partly drawn) [Compound 1217] ({CH2CO}-FYD[ξW]L[Bip][Cit][Dap][dL]NLVSCA-NH2; thioether N-14), the IC50 was 25.4 nM. As to `CC(C)C[C@H]1NC(=O)[C@H](CCCN)NC(=O)[C@H](CCCNC(N)=O)NC(=O)[C@H](Cc2ccc(-c3ccccc3)cc2)NC(=O)[C@H](C(C)C)NC(=O)[C@H](Cc2c[nH]c3ccccc23)NC(=O)[C@H](CC(=O)O)NC(=O)[C@H](Cc2ccc(Cl)c(Cl)c2)NC(=O)[C@H](CN)NC(=O)CSC[C@@H](C(=O)N[C@@H](C)C(N)=O)NC(=O)[C@H]([C@@H](C)O)NC(=O)[C@H](C(C)C)NC(=O)[C@H](CC2CCCCC2)NC(=O)[C@H](CCN)NC1=O` [Compound 2130] ({CH2CO}-[Dap][Phe(3,4-Cl2)]DWV[Bip][Cit][Orn][dL][Dab][Cha]VTCA-NH2; thioether N-14), the IC50 was 96.6 nM. As to `CC[C@H](C)[C@@H]1NC(=O)[C@H](Cc2ccc(-c3ccccc3)cc2)NC(=O)[C@H](C(C)C)NC(=O)[C@H](Cc2c[nH]c3ccccc23)NC(=O)[C@H](CC(=O)O)NC(=O)[C@H](Cc2ccc(O)cc2)NC(=O)[C@H](CC(N)=O)NC(=O)CSC[C@@H](C(=O)N[C@@H](C)C(N)=O)NC(=O)[C@H](CO)NC(=O)[C@H](C(C)C)NC(=O)[C@H](CC(C)C)NC(=O)[C@H](CCN)NC(=O)[C@@H](CC(C)C)NC(=O)[C@H](CCN)NC1=O` [Compound 1120] ({CH2CO}-NYDWV[Bip]I[Dab][dL][Dab]LVSCA-NH2; thioether N-14), the IC50 stood at 11.5 nM. Regarding `C#CCOc1ccc(C[C@@H]2NC(=O)[C@H](Cc3ccc(-c4ccccc4)cc3)NC(=O)[C@H](Cc3ccc(OCC(=O)O)cc3)NC(=O)[C@H](Cc3cccc(C)c3)NC(=O)[C@H](CC(=O)O)NC(=O)[C@H](Cc3ccc(OCC(=O)O)cc3)NC(=O)[C@H](CCC)NC(=O)CSC[C@@H](C(=O)N[C@@H](CCN)C(N)=O)NC(=O)[C@H](CCC(=O)O)NC(=O)[C@H](C(C)C)NC(=O)[C@H](CC3CCCCC3)NC(=O)[C@H](CCN)NC(=O)[C@@H](CC(C)C)NC(=O)[C@H](CCCN)NC2=O)cc1` [Compound 1837] ({CH2CO}-[Nva]Y(Carboxymethyl)D[Phe(3-Me)]Y(Carboxymethyl)[Bip]Y(Propargyl)[Orn][dL][Dab][Cha]VEC[Dab]-NH2; thioether N-14), the IC50 was 8.3 nM. On to `CC[C@H](C)[C@@H]1NC(=O)[C@H](Cc2ccc(-c3ccccc3)cc2)NC(=O)[C@H](C(C)C)NC(=O)[C@H](Cc2cccc(OC)c2)NC(=O)[C@H](CC(=O)O)NC(=O)[C@H](Cc2ccncc2)NC(=O)[C@H](CN)NC(=O)CSC[C@@H](C(=O)N[C@@H](C)C(N)=O)NC(=O)[C@H]([C@@H](C)O)NC(=O)[C@H](C(C)C)NC(=O)[C@H](CC2CCCCC2)NC(=O)[C@H](CCN)NC(=O)[C@@H](CC(C)C)NC(=O)[C@H](CCCN)NC1=O` [Compound 1563], for which the IC50 is 10.7 nM. Consider `CC(C)C[C@H]1NC(=O)[C@H](CCCN)NC(=O)[C@H](Cc2ccc(C(=O)O)cc2)NC(=O)[C@H](Cc2ccc(-c3ccccc3)cc2)NC(=O)[C@H](Cc2ccc3ccccc3c2)NC(=O)[C@H](Cc2cccc(C(F)(F)F)c2)NC(=O)[C@H](CC(=O)O)NC(=O)[C@H](Cc2ccc(C(=O)O)cc2)NC(=O)[C@H](CN2CCOCC2)NC(=O)CSC[C@@H](C(=O)N[C@@H](CCN)C(N)=O)NC(=O)[C@H](CCC(=O)O)NC(=O)[C@H](C(C)C)NC(=O)[C@H](CC2CCCCC2)NC(=O)[C@H](CCN)NC1=O` [Example 2738] ({CH2CO}-[Ala(morpholin-4-yl)][Phe(4-COOH)]D[Phe(3-CF3)][2Nal][Bip][Phe(4-COOH)][Orn][dL][Dab][Cha]VEC[Dab]-NH2; thioether N-14), for which the IC50 turned out to be 2.3 nM.

For the compound `C#CC[C@H](NC(=O)[C@H](CCN)NC(=O)[C@@H]1CSCC(=O)N[C@@H](CN)C(=O)N[C@@H](Cc2ccc(C(=O)O)cc2)C(=O)N[C@@H](CC(=O)O)C(=O)N[C@@H](Cc2cccc(C)c2)C(=O)N[C@@H](Cc2ccc(C(=O)O)cc2)C(=O)N[C@@H](Cc2ccc(-c3ccccc3)cc2)C(=O)N[C@@H](Cc2ccc(C(=O)O)cc2)C(=O)N[C@@H](CCCN)C(=O)N[C@H](CC(C)C)C(=O)N[C@@H](CCN)C(=O)N[C@@H](CC2CCCCC2)C(=O)N[C@@H](C(C)(C)O)C(=O)N[C@@H](Cc2cnc[nH]2)C(=O)N1)C(N)=O` [Compound 1848] ({CH2CO}-[Dap][Phe(4-COOH)]D[Phe(3-Me)][Phe(4-COOH)][Bip][Phe(4-COOH)][Orn][dL][Dab][Cha][Val(3-OH)]HC[Dab][Pra]-NH2; thioether N-14), the IC50 is 8.3 nM. With `Cc1cccc(C[C@@H]2NC(=O)[C@H](CC(=O)O)NC(=O)[C@H](Cc3ccncc3)NC(=O)[C@H](CN)NC(=O)CSC[C@@H](C(N)=O)NC(=O)[C@H]([C@@H](C)O)NC(=O)[C@H](C(C)C)NC(=O)[C@H](CC(C)C)NC(=O)[C@H](CCN)NC(=O)[C@@H](CC(C)C)NC(=O)[C@H](CCCN)NC(=O)[C@H](C(C)C)NC(=O)[C@H](Cc3ccc(-c4ccccc4)cc3)NC(=O)[C@H](C(C)C)NC2=O)c1` [Compound 1550] ({CH2CO}-[Dap][4Pal]D[Phe(3-Me)]V[Bip]V[Orn][dL][Dab]LVTC-NH2; thioether N-14), the IC50 was found to be 94.5 nM. Regarding `C#CC[C@H](NC(=O)[C@H](CCN)NC(=O)[C@@H]1CSCC(=O)N[C@@H](CCN)C(=O)N[C@@H](Cc2ccc(C(=O)O)cc2)C(=O)N[C@@H](CC(=O)O)C(=O)N[C@@H](Cc2cccc(C)c2)C(=O)N[C@@H](Cc2ccc(C(=O)O)cc2)C(=O)N[C@@H](Cc2ccc(-c3ccccc3)cc2)C(=O)N[C@@H](Cc2ccc(C(=O)O)cc2)C(=O)N[C@@H](CCCN)C(=O)N[C@H](CC(C)C)C(=O)N[C@@H](CCN)C(=O)N[C@@H](CC2CCCCC2)C(=O)N[C@@H](C(C)(C)O)C(=O)N[C@@H](CO)C(=O)N1)C(N)=O` [Compound 1865] ({CH2CO}-[Dab][Phe(4-COOH)]D[Phe(3-Me)][Phe(4-COOH)][Bip][Phe(4-COOH)][Orn][dL][Dab][Cha][Val(3-OH)]SC[Dab][Pra]-NH2; thioether N-14), the IC50 came to 12 nM. Consider `CC(C)C[C@H]1NC(=O)[C@H](CCCN)NC(=O)[C@H](C(C)C)NC(=O)[C@H](Cc2ccc(-c3ccccc3)cc2)NC(=O)[C@H](C(C)C)NC(=O)[C@H](Cc2c[nH]c3ccccc23)NC(=O)[C@H](CC(=O)O)NC(=O)[C@H](Cc2ccc(C(=O)O)cc2)NC(=O)[C@H](Cc2ccc(OCC(=O)O)cc2)NC(=O)CSC[C@@H](C(=O)N[C@@H](C)C(N)=O)NC(=O)[C@H]([C@@H](C)O)NC(=O)[C@H](C(C)C)NC(=O)[C@H](CC2CCCCC2)NC(=O)[C@H](CCN)NC1=O` [Compound 1691], for which the IC50 was 32.8 nM.

With `CC(C)C[C@@H]1NC(=O)[C@H](CCN)NC(=O)[C@@H](CC(C)C)NC(=O)[C@H](CCCN)NC(=O)[C@H](CCCNC(N)=O)NC(=O)[C@H](Cc2ccc(-c3ccccc3)cc2)NC(=O)[C@H](C(C)C)NC(=O)[C@H](Cc2c[nH]c3ccccc23)NC(=O)[C@H](CC(=O)O)NC(=O)[C@H](Cc2ccc(O)cc2)NC(=O)[C@H](CC(N)=O)NC(=O)CSC[C@@H](C(=O)NCC(N)=O)NC(=O)[C@H](CO)NC(=O)[C@H](C(C)C)NC1=O` [Compound 1112] ({CH2CO}-NYDWV[Bip][Cit][Orn][dL][Dab]LVSCG-NH2; thioether N-14), the IC50 turned out to be 17.1 nM. For `CC(C)C[C@H]1NC(=O)[C@H](CCCN)NC(=O)[C@H](CCCNC(N)=O)NC(=O)[C@H](Cc2ccc(-c3ccccc3)cc2)NC(=O)[C@H](C(C)C)NC(=O)[C@H](Cc2c[nH]c3ccccc23)NC(=O)[C@H](CC(=O)O)NC(=O)[C@](C)(CCC(=O)O)NC(=O)[C@H](CN)NC(=O)CSC[C@@H](C(=O)N[C@@H](C)C(N)=O)NC(=O)[C@H]([C@@H](C)O)NC(=O)[C@H](C(C)C)NC(=O)[C@H](CC2CCCCC2)NC(=O)[C@H](CCN)NC1=O` [Compound 2136] ({CH2CO}-[Dap][αMeE]DWV[Bip][Cit][Orn][dL][Dab][Cha]VTCA-NH2; thioether N-14) the value was 814 nM; for `CC(C)C[C@@H]1NC(=O)[C@H](CCCNC(=N)N)NC(=O)[C@@H](CC(C)C)NC(=O)[C@H](CCCCN)NC(=O)[C@H](CCCNC(=N)N)NC(=O)[C@H](Cc2ccc(-c3ccccc3)cc2)NC(=O)[C@H](C(C)C)NC(=O)[C@H](Cc2c[nH]c3ccccc23)NC(=O)[C@H](CC(=O)O)NC(=O)[C@H](Cc2ccc(O)cc2)NC(=O)[C@H](CC(N)=O)NC(=O)CSC[C@@H](C(=O)N[C@@H](C)C(N)=O)NC(=O)[C@H]([C@@H](C)O)NC(=O)[C@H](C(C)C)NC1=O` [Compound 1007] ({CH2CO}-NYDWV[Bip]RK[dL]RLVTCA-NH2; thioether N-14), 45.3 nM.
